Here are results for 1 compound from patent US9901602B2, “Ejaculum of animals as medicinal material and uses thereof in medicaments for treatment of diseases such as tumors, depression, etc” (Hui CHENG, priority 2008, dated 2018).

The subject of this data set is S180 tumor cells (mouse sarcoma). As to conditions: mice sarcoma S180, stomach lavage, 0.3 ml/10 g body weight/day×10. An excerpt: The mice inoculated by S180 tumor cells (mouse sarcoma) were used as model animals.
In the meantime, non-inoculated mice were feed and used as the native control group.

Take `O=P1(N(CCCl)CCCl)NCCCO1` (centres unmarked) [cyclophosphamide]: the “Mice body (GPT)” value turned out to be 39.2 ± 5.69 and the “Weight of Tumor (g) (X ± SD)” value is given as 0.614 ± 0.268 g.
